From patent US4743589A, “Treatment of endometriosis” (Roussel UCLAF, priority 1979, dated 1988)

What was measured:
[1] = tested on: testicular steroidogenosis; assay: inhibitory activity on testicular steroidogenosis in a patient with prostate cancer; format: in vivo, human; settings: intranasal 500 μg twice a day
Source text: The inhibitory activity of [D Ser (tbu)^6 des Gly NH2^10 ] […] The results are reported in the graphs of sheet 2 of the Figures.

[2] = tested on: testicular steroidogensis; assay: inhibitory activity against testicular steroidogenesis in men in good health (seric LH, FSH and steroids by radioimmunoassay); format: in vivo
Protocol: The said product was administered intranasally at a dose of 500 μg in a few drops of distilled water at 8 A.M. on the third day of the test. For 2 days prior to the treatment and for 6 days after the treatment, samples of blood were taken daily at 8 A.M., 3 P.M. and 10 P.M. On the day of administration of the LH-RH agonist, blood samples were taken at 11 A.M. and 6 P.M.
The series concentrations of LH and FSH were measured by radioimmuno-logic dosages with double antibodies and the antibodies for measuring LH and FSH were furnished by the National Pituitary Agency of N.I.H. in Bethesda, Md. The seric concentrations of steroids was measured by radioimmuno-logic dosages in which one ml of serum was extracted with ether and the steroids were separated on a LH-20 column before measuring with radioimmuno-logic dosages. The radioimmuno-logic dosage results were determined by a program derived from model II of Rodbard et al [Second Karolinska Symposium on Research Methods in Reproductive Endrocrinology, Diczfalusky Editor, Copenhague (1970), p. 79-103]. The statistical significance was determined by the "multiple level test" of Duncan-Kramer [Kramer, Biometrics, Vol. 12 (1956), p. 307]. The results are shown in the graphs on sheet 1 of the Figures filed herewith.

ovarian steroidogenosis = assay: inhibitory activity on ovarian steroidogenosis in women (seric progesterone by radioimmunoassay); format: in vivo; settings: for seric level of progesterone, reduction compared to the controls: 500 μg intranasal at 8 A.M. and 5 P.M. of one luteal-phase day, typical case (sheet 3); for level of progesterone as % of pretreatment cycles (100%): 12 cycles
Protocol: The study was conducted for 6 consecutive cycles consisting of 2 pretreatment cycles, 2 treatment cycles and 2 post-treatment cycles. […] Daily blood samples were taken between 4 and 6 P.M. to measure seric levels of LH, FSH, progesterone and estradiol which were determined by radioimmuno-logictests with double antibodies. The antibodies to measure LH and FSH were furnished by the National Pituitory Agency of N.I.H. of Bethesda, Md.
Estradiol and progesterone were measured with highly specific antibodies developed against 7-(0-carboxymethyl)-oxime of estradiol and 12-(0-carboxymethyl)-oxime of progesterone, respectively [3H] 17β-estradiol and ^125 I-progesterone-12-[0-carboxymethyl)-oxime]used as tracers. The serum was extracted with benzene and the steroids were separated with a LH-20 column before the determination. The radioimmunological results were exploited by the program derived from model II of Rodbard and Lewald as in Example 1 and the statistical significance was measured by the multiple level test of Ducan-Kramer of Example 1. The results shown in the graphs of sheets 3 to 5 of the Figures.

[3] = 12 cycles of treatment (sheet 5)

## CCNC(=O)[C@@H]1CCCN1C(=O)[C@H](CCCNC(=N)N)NC(=O)[C@H](CC(C)C)NC(=O)[C@@H](COC(C)(C)C)NC(=O)[C@H](Cc1ccc(O)cc1)NC(=O)[C@H](CO)NC(=O)[C@H](Cc1c[nH]c2ccccc12)NC(=O)[C@H](Cc1c[nH]cn1)NC(=O)[C@@H]1CCC(=O)N1 [[D Ser (tbu)^6 des Gly NH2^10]LH-RH ethylamide]
[1]
  level of androgenic steroids in plasma: diminution
[1]; two weeks of treatment
  level of testosterone: stabilized at a very low level
[2]; human, single intranasal dose 500 μg
  day after administration on which the steroid level returned to normal: fourth day
[2]; men, intranasal 500 μg
  time to return of LH and FSH to normal levels after administration: 8 to 12 h
[2]; men, intranasal 500 μg, day after treatment, different subjects, elevated from 20 to 35
  seric concentration of 17β-estradiol after the deferred elevation: 100 to 250 pg/mL
[2]; men, intranasal 500 μg, day of treatment
  seric concentration of pregnenolone, 17-OH-pregnenolone, progesterone, 17-OH-progesterone, Δ5-androstene-3β,17β-diol and testosterone on the day of treatment: increased
Ovarian steroidogenosis; first cycle of treatment
  seric level of progesterone, reduction compared to the controls: 13%
Ovarian steroidogenosis; second cycle of treatment
  seric level of progesterone, reduction compared to the controls: 34%
Ovarian steroidogenosis; [3]
  level of progesterone, reduction compared to the controls: 46%
  scale (range) of the level of progesterone compared to the controls: 13 to 127%
Ovarian steroidogenosis; cycles of post-treatment
  level of progesterone as % of pretreatment cycles (100%): 99%
Ovarian steroidogenosis; cycles of treatment
  level of progesterone as % of pretreatment cycles (100%): 46%
